Assays:
[1] = cited from earlier work
[2] = Oral dissolve acceptability / ALA burn of ALA lozenges and tablets in users; settings: salt added to, or salt form used in, oral dissolve ALA formulation
Description: These tablets are circular, 9 mm in diameter, approximately 5 mm thick, having a weight of approximately 0.35 g and dissolution times of about 3.5 minutes.
Such NaCl-tablet and Non-Salt-tablet formulations being referred to as “NaCl-formulations” and “Non-Salt-formulation” respectively.
One way to specify or measure the difference resulting from the addition of any organic or inorganic salt (such as NaCl) to a formulation, is to measure the degree to which the Salt-formulation has less of an ALA burn than the Non-Salt-formulation when dissolved in the mouth.

[3] = antacid taken with ALA taken orally (ingested); found by some individuals
Description: Some of the ALA in the saliva is swallowed during oral dissolve administration, therefore the esophagus and stomach encounter some ALA and may be irritated by it, particularly in humans and non-human species with sensitive stomachs.

SMILES | reduction of ALA burn (burning sensation in the mouth) [2] | also measured
O=C(O)CCCCC1CCSS1 (stereo not drawn) [ALA, Alpha-lipoic acid] |  | pKa [1]: 4.7
[Cl-].[Na+] [NaCl, sodium chloride] | reduces the ALA burn during oral dissolution | 
O=C([O-])CCCC[C@@H]1CCSS1.[Na+] [Na—R-ALA] | further reduction of the ALA burning and/or rawness problems | 
O=C([O-])[O-].[Ca+2] [calcium carbonate] |  | stomach irritation [3]: reduces this stomach irritation
